Source: publication PMC11214487, “YZL-51N functions as a selective inhibitor of SIRT7 by NAD^+ competition to impede DNA damage repair” (iScience, 2024)
Values joined by “and” are separate entries in the source; they are usually repeats but may differ in a detail not shown here. Identical values can stand only once. Like-named read-outs stand apart in the source and are kept apart here. Each block holds one compound with its values, some of them ahead of it.

What was measured:
[1] = target: T1, SIRT7 (Homo sapiens, UniProt Q9NRC8); assay: Fluor de Lys (FDL) SIRT7 deacetylase assay; type: biochemical; settings: for IC50: 0.5 mM NAD+, read-out: FDL assay SIRT7 inhibition IC50; for inhibition at 50 µM: 50 μM compound, 37°C, 90 min; for Dose-dependent inhibition of SIRT7: FDL assay, Figure S5
T1 construct: His-tagged full length SIRT7 protein expression from BL21 bacterial cells; His; made in house; host or cells: E. coli BL21
T1 sequence (Q9NRC8 1-400): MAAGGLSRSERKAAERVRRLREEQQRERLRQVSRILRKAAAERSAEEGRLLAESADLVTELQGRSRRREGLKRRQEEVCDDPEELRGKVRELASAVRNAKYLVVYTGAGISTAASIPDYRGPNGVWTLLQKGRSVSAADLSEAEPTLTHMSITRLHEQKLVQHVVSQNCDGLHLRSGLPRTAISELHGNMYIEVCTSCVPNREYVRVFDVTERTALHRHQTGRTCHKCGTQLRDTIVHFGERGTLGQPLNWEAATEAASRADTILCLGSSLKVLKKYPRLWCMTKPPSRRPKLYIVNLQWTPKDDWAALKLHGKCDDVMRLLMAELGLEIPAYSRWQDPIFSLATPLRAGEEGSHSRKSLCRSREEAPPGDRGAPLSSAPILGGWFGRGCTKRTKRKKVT
Description: To assess SIRT7 deacetylase activity using Fluor de Lys (FDL) assays, the peptide […]∗QLAGGK was synthesized and characterized as a substrate using fluorophore 7-methoxycoumarin-4-acetic acid (∗, MCA) (Figures 1A, S1A, and S1B). In the presence of both SIRT7 and NAD^+, a luminescence response was detected in the linear range (y = 31.88x + 2396, R^2 = 0.9742) (Figure 1B). We screened our preserved library of 242 natural products to find potential SIRT7 inhibitors.
For in vitro analysis of SIRT7 deacetylation, the reaction system contained 10 μg His-SIRT7, 0.5 mM NAD^+, 10 μM […](MCA)QLAGGK (synthesized by QYAOBIO; details in the supplementary files), 50 μM potential compound or 3 mM NAM, and assay buffer (10 mM Tris-HCl pH 8.0, 4 mM MgCl2, 0.2 mM DTT and 10% Glycerol). The deacetylation reactions were incubated at 37°C for 90 min. The fluorescence intensity was measured with a microplate reader (Synergy H4 Hybrid Reader, Biotek) at an excitation wavelength of 260 nm and detected at an emission spectrum of 300–600 nm. The IC50 values were calculated at 450 nm emission by GraphPad Prism 8.

[2] = target: T1, SIRT7; assay: Fluor de Lys (FDL) SIRT7 deacetylase assay; type: biochemical; settings: 2 mM NAM treatment
[3] = target: T1, SIRT7; assay: Dot blot assay of SIRT7-mediated H3K18ac peptide deacetylation; type: biochemical; settings: for Rescue of H3K18 acetylation: dot blot screening, 50 μM; for EC50: read-out: Dot blot assay H3K18ac rescue EC50
Description: To avoid the bias of the fluorescence assay, we also performed dot blot assays for the effects of natural compounds on SIRT7-mediated deacetylation of H3K18ac peptides in vitro (Figures S2A and S2B). In this system, SIRT7 mediated a dose-dependent deacetylation of H3K18ac (Figure 1D). […] Based on comparisons of all the candidates, we selected YZL-51N as the best for further investigation (Figure 1F). […] Thus, P. americana derived YZL-51N was confirmed as an identified SIRT7 inhibitor using parallel peptide-based screening platforms.
For dot blot assays, the reaction system containing 10 μg His-SIRT7, 0.5 mM NAD^+, 10 μM biotin-H3K18ac peptides and 50 μM potential compound was mixed and incubated at 37°C for 90 min. Samples were transferred to a polyvinylidene difluoride (PVDF) membrane, and then blocked with 5% skimmed milk. The blots were probed with H3K18ac primary antibody at RT for 2 h and then incubated with secondary antibody at RT for 1h. The bands were visualized using ECL substrates (Thermo Fisher, USA) on Tanon 5200SF Imaging System.

[4] = tested on: HCT116 cells
Experimental: Cells were seeded into 96 well plates (4,000 cells/well). […] The cells were then washed and re-cultured in fresh medium for 48 h. […] Formazan were generated by the addition of 100 μL DMSO and shaking for 30 min. The absorbance of samples was measured at 570 nm using a microtiter plate reader (BioTek).

[5] = tested on: EZH2; set-up: method as in PMID 23023262; settings: EZH2 over EZH1 ref 52; cited from earlier work
[6] = target: T1, SIRT7; assay: Surface plasmon resonance (SPR) binding assay
Experimental: All SPR measurements were performed on Biacore T200 instrument (GE Healthcare) with running buffer (PBS+5% DMSO) at room temperature. The bacterially purified His-SIRT7 was covalently immobilized onto Series S Sensor Chip CM5 by a standard amino-coupling procedure in 10 mM sodium acetate (pH 5.5). Two-fold serial dilutions of YZL-51N or NAD^+ in 5% DMSO passed through the sensor chip at 30 μL/min for 120 s, followed by 240 s of dissociation flow. The KD value was calculated based on the concentration dependence of the observed steady-state response using Biacore T200 Evaluation software Version 1.0 (GE Healthcare).

SMILES: NC(=O)c1cccnc1 [NAM, nicotinamide, reference compound]
IC50 ([1]; 0-30 mM NAM): 2290 µM and ~2290 µM | inhibition at 2000 µM [2]: 44.4%

SMILES: COc1cc([C@@H]2c3cc4c(cc3[C@@H](O[C@@H]3O[C@@H]5CO[C@@H](C)O[C@H]5[C@H](O)[C@H]3O)[C@H]3COC(=O)[C@H]23)OCO4)cc(OC)c1O [etoposide, reference compound]
Cell proliferation (%, Mean ± SD) ([4]; single agent 5 μM): 92.7 ± 4.1% | Cell proliferation (%, Mean ± SD) ([4]; single agent 10 μM): 82.5 ± 6.0% | Cell proliferation (%, Mean ± SD) ([4]; single agent 20 μM): 73.5 ± 6.0% | Cell proliferation (%, Mean ± SD) ([4]; single agent 40 μM): 48.5 ± 2.4% | Cell proliferation (%, Mean ± SD) ([4]; single agent 80 μM): 27.0 ± 1.9%

SMILES: Cc1cc(C)c(CNC(=O)c2cc(-c3ccc(CN4CCOCC4)cc3)cc3c2cnn3C2CCCC2)c(=O)[nH]1 [EPZ005687]
Selectivity against EZH1 [5]: 50 fold

SMILES: NC(=O)c1ccc[n+]([C@@H]2O[C@H](COP(=O)([O-])OP(=O)(O)OC[C@H]3O[C@@H](n4cnc5c(N)ncnc54)[C@H](O)[C@@H]3O)[C@@H](O)[C@H]2O)c1 [NAD^+]
Weaker affinity to SIRT7 than YZL-51N [6]: 200 fold | Kd ([6]; immobilized His-SIRT7): > 200 µM

SMILES: COc1ccc(C(C)=O)cc1OC [compound 1]
inhibition at 50 µM [1]: 47.5% | Dose-dependent inhibition of SIRT7 [1]: did not show a dose-dependent inhibition

Results, then the compound that gave them:

inhibition at 50 µM [1]: 12.3% | Rescue of H3K18 acetylation [3]: rescued H3K18 acetylation | EC50 [3]: 70.2 µM
SMILES: COC(=O)/C(=C\C(=O)c1ccc(OC)c(OC)c1)c1ccc(OC)c(OC)c1 [compound 6]

inhibition at 50 µM [1]: 52.7% | IC50 ([1]; 10 μM peptide): > 30 µM | Dose-dependent inhibition of SIRT7 [1]: did not show a dose-dependent inhibition | Rescue of H3K18 acetylation [3]: rescued H3K18 acetylation | EC50 [3]: 32 µM
SMILES: O=C(O)/C(=C\C(=O)c1ccc(O)c(O)c1)c1ccc(O)c(O)c1 [compound 7]
